Test results reported in patent US20030083292A1, “Inhibitors of DNA methyltransferase isoforms” (priority 2001, published 2003).

Key:
[1] = test system: DNMT3b protein; experiment: Western blot of DNMT3b protein level; assay type: cell-based, human; conditions: 0-75 nM, 48 hrs
Description: In order to determine whether treatment with DNMT3a or DNMT3b AS-ODNs would inhibit expression at the protein level, antibodies specific for either DNMT3a or DNMT3b were produced for use in western blots. DNMT3b is expressed at sufficiently high levels in human cancer cells to be detected by our DNMT3b antibody. However, DNMT3a is not expressed at detectable levels. Therefore, both human A549 non small cell lung cancer cells and T24 human bladder cancer cells were treated with doses of the DNMT3b antisense inhibitor (SEQ ID NO: 18) ranging from 0-75 nM for 48 hours and then measured DNMT3b protein levels by Western blot.
Briefly, cells were lysed in buffer containing 1% Triton X-100, 0.5% sodium deoxycholate, 5 mM EDTA, 25 mM Tris-HC1, pH 7.5, plus protease inhibitors. Total protein was quantified by the protein assay reagent from Bio-Rad (Hercules, Calif.). 100 ug of total protein was analyzed by SDS-PAGE. Next, total protein was transferred onto a PVDF membrane and probed with DNMT3b specific antibody. Anti-DNMT3b antibody was raised by immunizing rabbits with a GST fusion protein containing a fragment of the DNMT3b protein (amino acids 4-101 of GenBank Accession No. NM_006892). Rabbit antiserum was tested and found only to react specifically to the human DNMT3b isoform. DNMT3b antiserum was used at 1:500 dilution in Western blots to detect DNA MeTase-6 in total cell lysates. Horse Radish Peroxidase conjugated secondary antibody was used at a dilution of 1:5000 to detect primary antibody binding. The secondary antibody binding was visualized by use of the Enhanced chemiluminescence (ECL) detection kit (Amersham-Pharmacia Biotech., Inc., Piscataway, N.J.).

[2] = test system: DNMT3b mRNA; experiment: Northern blot of DNMT3b mRNA expression after antisense treatment; assay type: cell-based, human; conditions: A549 cells
Description: (§1) To identify antisense oligodeoxynucleotide (ODN) capable of inhibiting DNMT3a or DNMT3b expression in human cancer cells, antisense oligonucleotides were initially screened in T24 (human blader) A549 (human non small cell lung cancers cells at 100 nM. Cells were harvested after 24 hours of treatment, and DNMT3a or DNMT3b RNA expression was analyzed by Northern blot analysis.
(§2) Active oligonucleotides identified in initial screens were then synthesized with phosporothiate backbone modification and 2′-O-methyl modifications of the sugar on the four 5′ and 3′ nucleotides. […] Human A549 or T24 cells were treated with increasing doses of antisense (AS) oligonucleotide from 0-75 nM for 24 hours.
(§3) Briefly, human A549 or T24 human bladder carcinoma cells were seeded in 10 cm tissue culture dishes one day prior to oligonucleotide treatment. The cell lines were obtained from the American Type Culture Collection (ATCC) (Manassas, Va.) and were grown under the recommended culture conditions. Before the addition of the oligonucleotides, cells were washed with PBS (phosphate buffered saline). Next, lipofectin transfection reagent (GIBCO BRL Mississauga, Ontario, Calif.), at a concentration of 6.25 μg/ml, was added to serum free OPTIMEM medium (GIBCO BRL, Rockville, Md.), which was then added to the cells. The oligonucleotides to be screened were then added directly to the cells (i.e., one oligonucleotide per plate of cells).
Cells were harvested, and total RNAs were analyzed by Northern blot analysis. Briefly, total RNA was extracted using RNeasy miniprep columns (QIAGEN). Ten to twenty μg of total RNA was run on a formaldehyde-containing 1% agarose gel with 0.5 M sodium phosphate (pH 7.0) as the buffer system. RNAs were then transferred to nitrocellulose membranes and hybridized with the radiolabelled DNA probes specific for DNMT3a or DNMT3b messenger RNA. Autoradiography was performed using conventional procedures.

[3] = test system: DNMT3a mRNA; experiment: Northern blot of DNMT3a mRNA expression after antisense treatment; assay type: cell-based, human; conditions: A549 cells
Description: as §1, §2
as §3, with “The oligonucleotides to be screened were then added directly to the cells (i.e., one oligonucleotide per plate of cells).” left out
Cells were harvested, and total RNAs were analyzed by Northern blot analysis. […]

[4] = test system: MRHF (foreskin fibroblasts); experiment: Apoptosis in normal cells, MRHF; assay type: cell-based, human; conditions: 75 nM, 48 hrs
Description: (§4) In order to determine the effects of DNMT3a and DNMT3b inhibition on apoptosis of cancer cells, various cancer cell lines (A549 or T24 cells, MDAmb231) were exposed to the DNMT3a and DNMT3b AS-ODN for various periods of time and the effects on apoptosis were determined. For the analysis of apoptosis (active cell death), cells were analyzed using the Cell Death Detection ELISA ^Plus kit (Roche Diagnostic GmBH, Mannheim, Germany) according to the manufacturer's directions. Typically, 10,000 cells were plated in 96-well tissue culture dishes for 2 hours before harvest and lysis. Each sample was analyzed in duplicate. ELISA reading was done using a MR700 plate reader (DYNEX Technology, Ashford, Middlesex, England) at 410 nm. The reference was set at 490 nm.
(§5) The effect of DNMT3b inhibition on the induction of apoptosis in normal cells was also determined, the results of which are presented in FIG. 10. HMEC (human mammary epithelial cells, ATCC, Manassas, Va.) and MRHF (foreskin fibroblasts, ATCC, Manassas, Va.) were treated with 75 nM of DNMT3b AS (SEQ ID NO: 18) or its mismatch control SEQ ID NO: 19 for 48 hrs as previously described for human cancer cells.

[5] = test system: Glyceraldehyde 3′-phosphate dehydrogenase mRNA; experiment: Northern blot, non target mRNA Glyceraldehyde 3′-phosphate dehydrogenase; assay type: cell-based, human; conditions: A549 cells
Description: as §2, §3
Cells were harvested, and total RNAs were analyzed by Northern blot analysis. Briefly, total RNA was extracted using RNeasy miniprep columns (QIAGEN). Ten to twenty μg of total RNA was run on a formaldehyde-containing 1% agarose gel with 0.5 M sodium phosphate (pH 7.0) as the buffer system. […]

[6] = test system: HMEC (human mammary epithelial cells); experiment: Apoptosis in normal cells, HMEC; assay type: cell-based; conditions: 75 nM, 48 hrs
Description: as §4, §5

[7] = test system: A549 human non small cell lung cancer cells; experiment: Apoptosis, Cell Death Detection ELISA Plus, A549 cells; assay type: cell-based
Description: as §4

[8] = test system: DNMT1 mRNA; experiment: Northern blot, non target mRNA DNMT1; assay type: cell-based, human; conditions: A549 cells

| Substance | level of DNMT3b protein ([1]; A549 human non small cell lung cancer cells) | level of DNMT3b protein ([1]; A549 human non small cell lung cancer cells, listed as MG3741) | level of DNMT3b protein ([1]; T24 human bladder cancer cells) | level of DNMT3b protein ([1]; T24 human bladder cancer cells, listed as MG3741) | expression of DNMT3b mRNA [2] | IC50 ([2]; 0-75 nM, 24 hours, read-out: estimated IC50 value, inhibition of DNMT3b expression) [µM] | expression of DNMT3a mRNA [3] | apoptosis [4] | expression of non target mRNA Glyceraldehyde 3′-phosphate dehydrogenase [5] | apoptosis [6] | apoptosis [7] | expression of non target mRNA DNMT1 [8] |
| --- | --- | --- | --- | --- | --- | --- | --- | --- | --- | --- | --- | --- |
| SEQ ID NO: 18: DNMT3B AS, 3′UTR (3993), PTI, 5′cgtcgtggctccagttacaa3′ (antisense CGTCGTGGCTCCAGTTACAA; DNA, all phosphorothioate, methylation of C not given here) | dose dependent effect | inhibits | dose dependent effect | inhibits | dose dependent inhibition | ~0.025 | not effected | no apoptosis | not effected | no apoptosis | induced apotosis | not effected |
| SEQ ID NO: 33: DNMT3A AS, 3′UTR (4045), PTI, 5′cgtgagaacgcgccatctgc3′ (antisense CGTGAGAACGCGCCATCTGC; DNA, all phosphorothioate, methylation of C not given here) | – | – | – | – | not effected | – | dose dependent effect | – | not effected | – | – | not effected |
